Source: ChEMBL document CHEMBL1151576, “Synthesis of cyclohexyl analogs of restricticin” (Bioorg Med Chem Lett, 1994)
≈ marks a conversion by molar mass, not a printed value.

What was measured:
Assay type in all cases: functional
Candida albicans [1] = assay: In vitro antifungal activity against Candida albicans CY1002 was determined at pH 7 for inoculum size of 1*10e4 cfu/ml by broth dilution method
Cryptococcus neoformans [2] = assay: In vitro antifungal activity against Cryptococcus neoformans CY1059 was determined at pH 7 for inoculum size of 1*10e4 cfu/ml by broth dilution method
Candida albicans [3] = assay: In vitro antifungal activity against Candida albicans CY1005 was determined at pH 7 for inoculum size of 1*10e4 cfu/ml by broth dilution method
Cryptococcus neoformans [4] = assay: In vitro antifungal activity against Cryptococcus neoformans CY1057 was determined at pH 7 for inoculum size of 1*10e4 cfu/ml by broth dilution method
Aspergillus fumigatus [5] = assay: In vitro antifungal activity against Aspergillus fumigatus CF1003 was determined at pH 7 for inoculum size of 1*10e4 cfu/ml by broth dilution method
Candida albicans [6] = assay: In vitro antifungal activity against Candida albicans CY3003 was determined at pH 7 for inoculum size of 1*10e4 cfu/ml by broth dilution method
Aspergillus fumigatus [7] = assay: In vitro antifungal activity against Aspergillus fumigatus CF1004 was determined at pH 7 for inoculum size of 1*10e4 cfu/ml by broth dilution method

| Structure (SMILES) | IC80 (Candida albicans [1]) [µg/mL] | IC80 (Cryptococcus neoformans [2]) [µg/mL] | IC80 (Candida albicans [3]) [µg/mL] | IC80 (Cryptococcus neoformans [4]) [µg/mL] | IC80 (Aspergillus fumigatus [5]) [µg/mL] | IC80 (Candida albicans [6]) [µg/mL] | IC80 (Aspergillus fumigatus [7]) [µg/mL] |
| --- | --- | --- | --- | --- | --- | --- | --- |
| CCc1ccc(CC[C@@H]2CCC(C)(C)[C@H](OC)[C@H]2Cn2ccnc2)cc1 | 0.059 (≈ 0.166 µM) | 0.14 (≈ 0.395 µM) | 0.012 (≈ 0.0338 µM) | 0.12 (≈ 0.338 µM) | 0.37 (≈ 1.04 µM) | 0.0025 (≈ 0.00705 µM) | 0.19 (≈ 0.536 µM) |
| CCCCCCC/C=C/C[C@@H]1OC[C@H](C)[C@H](OC)[C@H]1COC(=O)CN | 1.8 (≈ 5.06 µM) | 3.2 (≈ 9 µM) | 1.58 (≈ 4.44 µM) | 2.19 (≈ 6.16 µM) | 0.73 (≈ 2.05 µM) | 0.97 (≈ 2.73 µM) | 0.52 (≈ 1.46 µM) |
| CCc1ccc(CC[C@@H]2CCC(C)(C)[C@H](OC)[C@H]2Cn2cncn2)cc1 | 0.098 (≈ 0.276 µM) | 0.37 (≈ 1.04 µM) | 0.042 (≈ 0.118 µM) | 0.82 (≈ 2.31 µM) | > 200 | 0.012 (≈ 0.0338 µM) | > 200 |
| OC(Cn1cncn1)(Cn1cncn1)c1ccc(F)cc1F [FLUCONAZOLE] | 2.6 (≈ 8.49 µM) | 11 (≈ 35.9 µM) | 2.8 (≈ 9.14 µM) | 3.8 (≈ 12.4 µM) | 200 (≈ 653 µM) | 1.1 (≈ 3.59 µM) | 180 (≈ 588 µM) |
| CCC(C)n1ncn(-c2ccc(N3CCN(c4ccc(OC[C@H]5CO[C@](Cn6cncn6)(c6ccc(Cl)cc6Cl)O5)cc4)CC3)cc2)c1=O (stereo not given in full) [ITRACONAZOLE] | 0.03 (≈ 0.0425 µM) | 0.046 (≈ 0.0652 µM) | 0.0056 (≈ 0.00794 µM) | 0.022 (≈ 0.0312 µM) | 0.02 (≈ 0.0283 µM) | 0.0012 (≈ 0.0017 µM) | < 0.0004 |
